Measurements from patent US11660293B2, “Substituted 2-azabicyclo[3.1.1]heptane and 2-azabicyclo[3.2.1]octane derivatives as orexin receptor antagonists” (Chronos Therapeutics Limited, priority 2017, dated 2023).

Experiments:
[1] = biological target: human Orexin type 1 receptors (Homo sapiens (Human), UniProt O43613); experiment: Scintillation Proximity Assay (SPA) binding assay, [3H]SB-674042 displacement, CHO-hOX1 membranes; details: Table 2, [3H]SB-674042 2 nM
Description: Scintillation Proximity Assay (SPA) Binding Assays CHO cells stably transfected with human Orexin type 1 receptors (CHO-hOX1) or HEK-293 cells transiently transfected with human Orexin type 2 receptors (HEK-hOX2) were collected after 16 h induction with 5 mM sodium butyrate. […] The binding was performed in a final volume of 200 μl. 100 μl of hOX1 or hOX2 beads-membranes suspension were added to 100 μl of [^3H]SB-674042 or [^3H]EMPA solutions (radioligand concentration 2 nM final in the assay), into the 96-well Isoplates containing the 2 μl/well of compounds to be tested. Nonspecific binding was measured in the presence of 1 μM Almorexant. Assay plates were then incubated at room temperature for 3 h before being counted in a Microbeta scintillation counter (PerkinElmer). Data were analysed by non-linear regression analysis using XLfit Software.

[2] = biological target: human Orexin type 2 receptors (Homo sapiens (Human), UniProt O43614); experiment: Scintillation Proximity Assay (SPA) binding assay, [3H]EMPA displacement, HEK-hOX2 membranes; details: Table 2, [3H]EMPA 2 nM
Description: Scintillation Proximity Assay (SPA) Binding Assays
CHO cells stably transfected with human Orexin type 1 receptors (CHO-hOX1) or HEK-293 cells transiently transfected with human Orexin type 2 receptors (HEK-hOX2) were collected after 16 h induction with 5 mM sodium butyrate. The cell pellets were re-suspended, homogenized in 15 mM Tris/HCl pH=7.5, 1 mM EGTA, 0.3 mM EDTA, 2 mM MgCl2, protease inhibitors and centrifuged at 40,000 g (20 min, 4° C.). After re-suspension, homogenization and centrifugation as above, the final pellets were re-suspended in 75 mM Tris/HCl pH=7.5, 1 mM EGTA, 0.3 mM EDTA, 12.5 mM MgCl2, 250 mM Sucrose, protease inhibitors, divided into aliquots and frozen down at −80° C.
CHO-hOX1 cell membranes (6 μg ml^−1) or HEK-hOX2 membranes (8 μg ml^−1) were pre-coupled with 1.0 mg ml^−1 of Wheatgerm Agglutinin-coated Yttrium Silicate (YSi-WGA) SPA beads (Perkin Elmer) in buffer containing 25 mM HEPES pH=7.4, 1 mM CaCl2), 5 mM MgCl2, 0.01% (w/v) BSA, 0.02% (w/v) Pluronic F-127 by shaking at room temperature for 2.5-3 h.
The binding was performed in a final volume of 200 μl. 100 μl of hOX1 or hOX2 beads-membranes suspension were added to 100 μl of [^3H]SB-674042 or [^3H]EMPA solutions (radioligand concentration 2 nM final in the assay), into the 96-well Isoplates containing the 2 μl/well of compounds to be tested. Nonspecific binding was measured in the presence of 1 μM Almorexant. Assay plates were then incubated at room temperature for 3 h before being counted in a Microbeta scintillation counter (PerkinElmer).
Data were analysed by non-linear regression analysis using XLfit Software.

Sequence of human Orexin type 1 receptors (O43613 whole entry): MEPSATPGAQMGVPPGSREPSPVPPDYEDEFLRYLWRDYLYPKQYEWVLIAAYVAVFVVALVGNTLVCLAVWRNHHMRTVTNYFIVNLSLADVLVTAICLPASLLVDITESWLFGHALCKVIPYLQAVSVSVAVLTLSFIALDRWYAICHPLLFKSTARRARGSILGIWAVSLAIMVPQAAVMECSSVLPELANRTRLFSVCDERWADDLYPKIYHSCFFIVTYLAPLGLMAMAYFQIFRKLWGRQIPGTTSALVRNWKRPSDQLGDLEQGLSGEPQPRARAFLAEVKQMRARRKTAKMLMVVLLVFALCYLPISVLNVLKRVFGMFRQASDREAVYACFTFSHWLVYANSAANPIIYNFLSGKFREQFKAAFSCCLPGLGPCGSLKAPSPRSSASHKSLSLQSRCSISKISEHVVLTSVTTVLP
Sequence of human Orexin type 2 receptors (O43614 whole entry): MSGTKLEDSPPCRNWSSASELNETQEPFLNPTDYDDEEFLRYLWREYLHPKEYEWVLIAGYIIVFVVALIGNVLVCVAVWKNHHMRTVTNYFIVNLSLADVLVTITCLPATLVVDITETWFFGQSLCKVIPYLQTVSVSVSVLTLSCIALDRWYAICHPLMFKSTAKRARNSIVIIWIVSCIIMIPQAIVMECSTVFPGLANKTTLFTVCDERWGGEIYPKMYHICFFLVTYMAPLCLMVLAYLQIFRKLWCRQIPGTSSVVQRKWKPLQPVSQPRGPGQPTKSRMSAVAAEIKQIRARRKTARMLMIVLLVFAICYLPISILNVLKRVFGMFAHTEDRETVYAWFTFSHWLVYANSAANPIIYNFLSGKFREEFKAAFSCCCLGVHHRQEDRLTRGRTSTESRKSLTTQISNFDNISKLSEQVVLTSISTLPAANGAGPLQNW

C[C@@H]1C2CC(C2)N(C(=O)c2cc(C#N)ccc2-n2nccn2)C1COc1ccc(F)cc1 (mixture of isomers) [Example 142, cis-3-{3-[(4-fluorophenoxy)methyl]-4-methyl-2-azabicyclo[3.1.1]heptane-2-carbonyl}-4-(2H-1,2,3-triazol-2-yl)benzonitrile]
OX1 pKi (SPA binding) [1]: 7
OX2 pKi (SPA binding) [2]: 6.33

Cc1ccc(-n2ncc(C)n2)c(C(=O)N2C3CC(C3)[C@@H](C)C2COc2ccc(F)cc2)n1 (mixture of isomers) [Example 144, cis-3-[(4-fluorophenoxy)methyl]-4-methyl-2-[6-methyl-3-(4-methyl-2H-1,2,3-triazol-2-yl)pyridine-2-carbonyl]-2-azabicyclo[3.1.1]heptane]
OX1 pKi (SPA binding) [1]: 7.96
OX2 pKi (SPA binding) [2]: 6.83

Cc1cnc(-n2nccn2)c(C(=O)N2C3CC(C3)[C@@H](C)C2COc2ccc(F)cc2)n1 (mixture of isomers) [Example 145, cis-3-[(4-fluorophenoxy)methyl]-4-methyl-2-[6-methyl-3-(2H-1,2,3-triazol-2-yl)pyrazine-2-carbonyl]-2-azabicyclo[3.1.1]heptane]
OX1 pKi (SPA binding) [1]: 7.03
OX2 pKi (SPA binding) [2]: 5.62

Cc1cn(-c2ccc(C)nc2C(=O)N2C3CC(C3)[C@@H](C)C2COc2ccc(F)cc2)nn1 (mixture of isomers) [Example 146, cis-3-[(4-fluorophenoxy)methyl]-4-methyl-2-[6-methyl-3-(4-methyl-1H-1,2,3-triazol-1-yl)pyridine-2-carbonyl]-2-azabicyclo[3.1.1]heptane]
OX1 pKi (SPA binding) [1]: 6.88
OX2 pKi (SPA binding) [2]: 5.53

Cc1ccc(-n2nccn2)c(C(=O)N2C3CC(C3)[C@H](C)C2CNc2ccc(Cl)cn2)n1 (mixture of isomers) [Example 148, trans-5-chloro-N-({4-methyl-2-[6-methyl-3-(2H-1,2,3-triazol-2-yl)pyridine-2-carbonyl]-2-azabicyclo[3.1.1]heptan-3-yl}methyl)pyridin-2-amine]
OX1 pKi (SPA binding) [1]: 6.85
OX2 pKi (SPA binding) [2]: 5.62

Cc1ccc(-n2nccn2)c(C(=O)N2C3CC(C3)[C@@H](C)C2CNc2nc3ccc(F)cc3s2)n1 (mixture of isomers) [Example 152, cis-6-fluoro-N-({4-methyl-2-[6-methyl-3-(2H-1,2,3-triazol-2-yl)pyridine-2-carbonyl]-2-azabicyclo[3.1.1]heptan-3-yl}methyl)-1,3-benzothiazol-2-amine]
OX1 pKi (SPA binding) [1]: 8.68
OX2 pKi (SPA binding) [2]: 6.1

Cc1ccc(-n2nccn2)c(C(=O)N2C3CC(C3)[C@@H](C)C2CNc2ccc(Cl)cn2)n1 (mixture of isomers) [Example 156, cis-5-chloro-N-({4-methyl-2-[6-methyl-3-(2H-1,2,3-triazol-2-yl)pyridine-2-carbonyl]-2-azabicyclo[3.1.1]heptan-3-yl}methyl)pyridin-2-amine]
OX1 pKi (SPA binding) [1]: 7.53
OX2 pKi (SPA binding) [2]: 5.35

Cc1ccc(-n2nccn2)c(C(=O)N2C3CC(C3)[C@@H](C)C2CNc2nc3cc(F)ccc3s2)n1 (mixture of isomers) [Example 157, cis-5-fluoro-N-({4-methyl-2-[6-methyl-3-(2H-1,2,3-triazol-2-yl)pyridine-2-carbonyl]-2-azabicyclo[3.1.1]heptan-3-yl}methyl)-1,3-benzothiazol-2-amine]
OX1 pKi (SPA binding) [1]: 7.84
OX2 pKi (SPA binding) [2]: 5.63

Cc1ccc(-n2nccn2)c(C(=O)N2C3CC(C3)[C@@H](C)C2CNc2cnc3ccccc3n2)n1 (mixture of isomers) [Example 158, cis-N-({4-methyl-2-[6-methyl-3-(2H-1,2,3-triazol-2-yl)pyridine-2-carbonyl]-2-azabicyclo[3.1.1]heptan-3-yl}methyl)quinoxalin-2-amine]
OX1 pKi (SPA binding) [1]: 8.4
OX2 pKi (SPA binding) [2]: 5.74

Cc1ccc(-n2nccn2)c(C(=O)N2C3CC(C3)[C@@H](C)C2CNc2ccc3ccccc3n2)n1 (mixture of isomers) [Example 161, cis-N-({4-methyl-2-[6-methyl-3-(2H-1,2,3-triazol-2-yl)pyridine-2-carbonyl]-2-azabicyclo[3.1.1]heptan-3-yl}methyl)quinolin-2-amine]
OX1 pKi (SPA binding) [1]: 7.32
OX2 pKi (SPA binding) [2]: 5.2

Cc1nc(C(=O)N2C3CC(C3)[C@@H](C)C2CNc2nc3ccc(F)cc3s2)c(-c2ncccn2)s1 (mixture of isomers) [Example 162, cis-6-fluoro-N-({4-methyl-2-[2-methyl-5-(pyrimidin-2-yl)-1,3-thiazole-4-carbonyl]-2-azabicyclo[3.1.1]heptan-3-yl]methyl)-1,3-benzothiazol-2-amine]
OX1 pKi (SPA binding) [1]: 8.83
OX2 pKi (SPA binding) [2]: 5.59

C[C@@H]1C2CC(C2)N(C(=O)c2cc(F)ccc2-n2nccn2)C1CNc1nc2ccc(F)cc2s1 (mixture of isomers) [Example 168, cis-6-fluoro-N-({2-[5-fluoro-2-(2H-1,2,3-triazol-2-yl)benzoyl]-4-methyl-2-azabicyclo[3.1.1]heptan-3-yl}methyl)-1,3-benzothiazol-2-amine]
OX1 pKi (SPA binding) [1]: 8.46
OX2 pKi (SPA binding) [2]: 5.88

C[C@@H]1C2CC(C2)N(C(=O)c2cc(Cl)ccc2-n2nccn2)C1CNc1nc2ccc(F)cc2s1 (mixture of isomers) [Example 171, cis-N-({2-[5-chloro-2-(2H-1,2,3-triazol-2-yl)benzoyl]-4-methyl-2-azabicyclo[3.1.1]heptan-3-yl}methyl)-6-fluoro-1,3-benzothiazol-2-amine]
OX1 pKi (SPA binding) [1]: 8.9
OX2 pKi (SPA binding) [2]: 6.32

CCOc1ccc(C)nc1C(=O)N1C2CC(C2)[C@@H](C)C1CNc1nc2ccc(F)cc2s1 (mixture of isomers) [Example 174, cis-N-{[2-(3-ethoxy-6-methylpyridine-2-carbonyl)-4-methyl-2-azabicyclo[3.1.1]heptan-3-yl]methyl}-6-fluoro-1,3-benzothiazol-2-amine]
OX1 pKi (SPA binding) [1]: 8.82
OX2 pKi (SPA binding) [2]: 7.06

Cc1ccc(-n2nccn2)c(C(=O)N2C3CC(C3)[C@@H](C)C2CNc2ccc(C(F)(F)F)cn2)n1 (mixture of isomers) [Example 181, cis-N-({4-methyl-2-[6-methyl-3-(2H-1,2,3-triazol-2-yl)pyridine-2-carbonyl]-2-azabicyclo[3.1.1]heptan-3-yl}methyl)-5-(trifluoromethyl)pyridin-2-amine]
OX1 pKi (SPA binding) [1]: 8.09
OX2 pKi (SPA binding) [2]: 5.09

C[C@@H]1C2CC(C2)N(C(=O)c2cc(F)ccc2-n2nccn2)C1CNc1cnc2ccccc2n1 (mixture of isomers) [Example 187, cis-N-({2-[5-fluoro-2-(2H-1,2,3-triazol-2-yl)benzoyl]-4-methyl-2-azabicyclo[3.1.1]heptan-3-yl}methyl)quinoxalin-2-amine]
OX1 pKi (SPA binding) [1]: 8.19
OX2 pKi (SPA binding) [2]: 5.63
